Converted amounts (≈) assume the structure as drawn.

The text below walks through data of ChEMBL document CHEMBL1144073, “A cytotoxic triterpene saponin from the root bark of Aralia dasyphylla” (J Nat Prod, 1999).

One experiment concerns KB. Briefly: Cytotoxicity against human KB cells. The experiment is classed as functional, cell-based.
Another experiment relates to HeLa. Briefly: Cytotoxicity against human HeLa S3 cells. It is filed as functional, cell-based.

For the molecule `O=c1[nH]cc(F)c(=O)[nH]1` [FLUOROURACIL], the IC50 (usually the concentration that inhibits the measured activity by half) came out at 0.93 µg/mL (≈ 7.15 µM) in the experiment on KB and 0.44 µg/mL (≈ 3.38 µM) in the experiment with HeLa.
For the molecule `Nc1ccn([C@@H]2O[C@H](CO)[C@@H](O)[C@@H]2O)c(=O)n1` [CYTARABINE], the IC50 in the experiment on KB was 0.81 µg/mL (≈ 3.33 µM); in the experiment with HeLa, 0.23 µg/mL (≈ 0.946 µM).
Consider `CC1(C)CC[C@]2(C(=O)O[C@@H]3O[C@H](CO)[C@@H](O)[C@H](O)[C@H]3O)CC[C@]3(C)C(=CC[C@@H]4[C@@]5(C)CC[C@H](O[C@@H]6O[C@H](C(=O)O)[C@@H](O)[C@H](O[C@@H]7O[C@H](CO)[C@@H](O)[C@H](O)[C@H]7O)[C@H]6O[C@@H]6O[C@H](CO)[C@H](O)[C@H](O)[C@H]6O)C(C)(C)C5CC[C@]43C)[C@H]2C1` (stereo partly specified), for which the IC50 in the experiment on KB is 1.2 µg/mL (≈ 1.07 µM); in the experiment with HeLa, 0.02 µg/mL (≈ 0.0179 µM).
